According to PMC5488252, “Specificity Effects of Amino Acid Substitutions in Promiscuous Hydrolases: Context‐Dependence of Catalytic Residue Contributions to Local Fitness Landscapes in Nearby Sequence Space” (Chembiochem, 2017):
Counter-ions that a name gives are not always drawn.

How the values were obtained:
[1] = tested on: AkAS; assay type: biochemical; conditions: 30 °C
[2] = tested on: T1, SaAS; assay: 4-nitrophenolate release at […] nm; assay type: biochemical; conditions: 30 °C; Bis-Tris propane or SID buffer
T1 construct: pASK-IBA5plus (Strep-tag), E. coli TOP10; source organism not spelt out in this text

`O=[N+]([O-])c1ccc(OP(=O)(O)O)cc1` [compound 1, phosphate monoester 1] gave a Km [1] of 17 mM.
Molecule `O=[N+]([O-])c1ccc(OS(=O)(=O)O)cc1` [compound 4, sulfate monoester 4] has a Km [2] of 0.24 mM.
